Patent US9708247B2, “Modulators of the eIF2alpha pathway” (The Regents of the University of California, priority 2013, dated 2017)
Entries after “also recorded” stand apart in the source; their conditions may differ.

Experiments:
[1] = tested on: RPMI 8226 cells; assay: Multiple myeloma xenograft model (RPMI 8226, BALB/c scid mice); assay type: in vivo, mouse; conditions: 5 mg/kg orally, daily
[2] = tested on: eIF2α (p-Ser51); assay: AlphaScreen SureFire eIF2α(p-Ser51) assay in U2OS cells; assay type: cell-based, human; conditions: U2OS
Protocol: U2OS cells were plated on 96 well plates and left to recover overnight. Cells were treated with either with 2 μg/ml tunicamycin or 100 nM thapsigargin in the presence or absence of 100 nM ISRIB or with ISRIB alone for the indicated and the level of eIF2α phosphorylation was determined using the AlphaScreen SureFire eIF2α(p-Ser51) Assay kit (Perkin Elmer) following the manufacturer's recommendations. Plates were read in an Envision Xcite Multilabel Reader using the standard Alpha Screen settings.

[3] = tested on: hippocampal-dependent memory; assay: Trace fear conditioning after surgery (postsurgical cognitive dysfunction); assay type: in vivo, mouse; conditions: mice, perioperative administration, postoperative day three
Excerpt: FIG. 26. Experimental design for measuring postsurgical cognitive dysfunction and effects of ISRIB on cognitive function; measurement of memory is a behavioral test using trace fear conditioning (TFC), which aims to establish a permanent memory in animals by using sensorial information; associative learning is presented with a neutral conditioning stimulus, paired with an aversive unconditioning stimulus (e.g. shock); freezing by the animal corresponds to the ability of the animal to retain memory from the context in which it has been trained. Separate cohorts of animals were used to assess inflammatory status 24 h after surgery. Downwards arrows represent injection points. FIG. 27. […] Control animals were given vehicle solution.

[4] = tested on: rabbit reticulocyte in vitro translation system; assay: Rabbit reticulocyte in vitro translation assay (luciferase mRNA); assay type: biochemical; conditions: rabbit reticulocyte lysate
Protocol: FIG. 24. ISRIB enhances production of luciferase in a rabbit reticulocyte in vitro translation assay; luciferase mRNA was added to the lysates in the presence or absence of different concentrations of ISRIB; the amount of luciferase protein produced was quantitated by addition of One-Glo and the Relative luminescent units were normalized to no-addition control.

[5] = tested on: caspase 3/7; assay: Caspase 3/7 activation in Hela cells; assay type: cell-based, human; conditions: tunicamycin or thapsigargin plus 25 nM ISRIB
Protocol: (§1) FIGS. 5A-5D. […]
Hela cells were plated in 96 well Corning plates at 0.4×10^4 cells/well 24 hours prior to imaging. […] In order to quantify the total number of cells, Vybrant DyeCycle Green staining solution (1 μM) was added directly to the well immediately after the final Caspase-3/7 scan and incubated for 1 h prior to acquiring final images. Data was analyzed using IncuCyte analysis software.

[6] = tested on: HEK293T cells; assay type: cell-based, human; conditions: 2 μg/mL tunicamycin plus 200 nM ISRIB, 24 h
Excerpt: as §1

[7] = tested on: contextual fear memory; assay: Contextual fear conditioning; assay type: in vivo, mouse; conditions: vs vehicle
Protocol: Eight to ten-week-old male C57BL/6J mice were used for behavioral experiments. Food and water were provided ad libitum, and mice were kept on a 12:12 h light/dark cycle (lights on at 08:00 h). All procedures complied with Canadian Council on Animal Care guidelines
Mice were handled for 3 days and thereafter injected daily intraperitoneally with ISRIB (0.25 mg/kg in saline, 1% DMSO) for 4 consecutive days. One hour after the last injection the mice were trained with the protocol, which consisted of a 2-min period of context exploration, followed by a single foot shock of 0.35 mA for 1 s. The mice were returned to their home cage 1 min after the shock. One and 24 h after training, the mice were tested for contextual fear memory by placing the animals in the conditioning context for a 4-min period. The incidence of freezing was scored in 5-s intervals as either “freezing” or “not freezing”. Percent of freezing indicates the number of intervals in which freezing was observed divided by total number of 5-s intervals. Statistical analyses were done by Student's t tests and one-way ANOVA followed by between-group comparisons using Tukey's posthoc test.

[8] = Toxicity in mice; assay type: in vivo
[9] = tested on: RPMI8226 cells; assay: Polysome gradient analysis in RPMI8226 cells; assay type: cell-based, human; conditions: ER-stressed (5 μg/ml tunicamycin) and un-stressed cells, 1 μM ISRIB

With `O=C(COc1ccc(Cl)cc1)NC1CCC(NC(=O)COc2ccc(Cl)cc2)CC1` (stereo not drawn) [ISRIB] the “tumor growth / tumor size vs vehicle (in words)” value [1] was “significant difference in tumor size; also recorded: significant reduction in the rate of tumor growth”, the “reduction in tumor size at the endpoint of the study” value ([1]; 26 days of dosing) was 50% and the “effect on eIF2α phosphorylation, compound alone” value ([2]; no ER stress, 120 min) was “no effect on eIF2α phosphorylation”. The “effect on eIF2α phosphorylation upon ER stress” value ([2]; tunicamycin or thapsigargin plus 100 nM ISRIB) was “did not block eIF2α phosphorylation”, the “memory impairment after surgery (freezing)” value [3] was “mitigated memory impairment after surgery” and the “translation of exogenously added mRNA” value [4] was “enhances translation”. The “activity of caspases 3 and/or 7” value [5] was “significantly induced”, the “cell survival of ER-stressed cells (colony number and size)” value [6] was “strong synergistic effect” and the “freezing, short-term contextual fear memory” value ([7]; 1 h after training) was “No differences were observed”. The “freezing, long-term contextual fear memory” value ([7]; 24 h after training, 0.25 mg/kg ip for 4 days, p<0.05) was “increased freezing”, the toxicity [8] was “no overt toxicity” and the “translation in multiple myeloma cells” value [9] was “increased translation”.
